# Measurements as given in patent US20260241046A1, “PROSTATE-SPECIFIC MEMBRANE ANTIGEN RECEPTOR-TARGETING RADIOPHARMACEUTICALS AND USES THEREOF” (Nuclidium AG, priority 2024, published 2026).
# What was measured:
# [1] = Shelf life at room temperature by reverse-phase radio-HPLC; format: physicochemical
# Description: The shelf life of [^61Cu]Cu-NODAGA-PSMA I&T was assessed at room temperature in the reaction solution and the injection formulation at various time points after EoS. At pre-defined time points (up to 12 h), an aliquot was analyzed by radio-HPLC. The radiochemical purity was determined by analytical reverse-phase radio-HPLC using a Macherey Nagel Nucleodur ISIS C18 (5 μm, 250×4.6 mm) column. The results indicated a stability of over 95% up to 12 hours (Table 22).
# [2] = Lipophilicity log D (pH 7.4), shake-flask method; format: physicochemical; settings: 1-octanol / PBS pH 7.4
# Description: The lipophilic/hydrophilic character of [^61Cu]Cu-NODAGA-PSMA I&T was assessed by the determination of the distribution coefficient (D), expressed as log D at physiological pH (log D (pH 7.4)), between an aqueous and an organic phase following the “shake-flask” method. [^61Cu]Cu-NODAGA-PSMA I&T (1 μM) was added to a 50:50 pre-saturated mixture solution of 1-octanol and phosphate-buffered saline (PBS pH 7.4). The mixture was vortexed for 30 min and then centrifuged at 3000 rpm to achieve phase separation. Aliquots from each phase were collected and measured in a gamma counter. The distribution coefficient was calculated as the average logarithmic values of the ratio between the radioactivity in the organic and the PBS phase.
# LNCaP xenografted mice = test: Biodistribution studies in LNCaP xenografted mice; format: in vivo
# Description: Unless otherwise specified, the in vivo studies were performed on athymic nude Foxn1^nu 4-6-week-old mice. Animals were injected in the shoulder with LNCaP cells (10^7 cells/200 μL) suspended in 1:1 (v: v) EMEM EBS medium and Matrigel. The in vivo experiments were performed when tumors reached a volume between 100-500 mm^3. At the intervention, all mice were between 7 and 11 weeks old. All animal experiments were performed following the guidelines for the use of living animals in scientific studies and the Swiss regulations for the protection of animals.
# Quantitative biodistribution studies were performed on LNCaP xenografted mice to determine the distribution of [^61Cu]Cu-NODAGA-PSMA I&T following i.v. injection into the tail vein. The dose of the administered radiopharmaceutical was between 1.5-3.5 MBq ([…]) diluted to 100 μL with saline solution. The mice were divided into two groups of eight (5 males and 3 females) and euthanized at 1- and 4-hours post-injection. The organs of interest were then collected, rinsed, blotted, weighed, and analyzed in a gamma counter. The results were expressed as the percentage of injected activity per gram of tissue (% IA/g) and reported as mean±standard deviation in Table 25.
# PSMA-expressing tissues = system: PSMA-expressing tissues
# Description: The specificity of [^61Cu]Cu-NODAGA-PSMA I&T for PSMA-expressing tissues was evaluated in LNCaP xenograft mice through a blocking study. The mice were first administered with 1.3 μmol (300 μg) of 2-PMPA as a blocking agent, followed by an intravenous injection of 4-8 MBq ([…]) [^61Cu]Cu-NODAGA-PSMA I&T diluted to 100 μL in saline in the tail vein. The animals (n=4) were sacrificed 1 hour post-injection, and the organs were collected, weighed and counted in a gamma counter as already described. The results are expressed as a percentage of injected activity per gram (% IA/g) as presented in Table 27 and are compared with the results obtained from biodistribution studies.
# PET/CT imaging was also performed at 1 hour post-injection.
structure (smiles),measurement,setting,value
O=C([O-])CN1CCN(CC(=O)[O-])CCN([C@H](CCC(=O)N[C@H](Cc2ccc(O)c(I)c2)C(=O)N[C@H](Cc2ccccc2)C(=O)N[C@H](CCCCNC(=O)CCCCCCC(=O)NCCCC[C@H](NC(=O)N[C@@H](CCC(=O)O)C(=O)O)C(=O)O)C(=O)O)C(=O)O)CC1.[61Cu+2] [[^61Cu]Cu-NODAGA-PSMA I&T],RCP by HPLC,[1]; Injection formulation,99.0 ± 0.2%
same,RCP up to 3 h (n = 3),[1]; Injection formulation,99.5 ± 0.2%
same,RCP up to 6 h (n = 3),[1]; Injection formulation,99.0 ± 0.5%
same,RCP up to 9 h (n = 3),[1]; Injection formulation,99.1 ± 0.5%
same,RCP up to 12 h (n = 2),[1]; Injection formulation,99.7 ± 0.41%
same,RCP by HPLC,[1]; Reaction solution,99.4 ± 0.4%
same,RCP up to 3 h (n = 3),[1]; Reaction solution,99.6 ± 0.2%
same,RCP up to 6 h (n = 3),[1]; Reaction solution,99.5 ± 0.7%
same,RCP up to 9 h (n = 3),[1]; Reaction solution,99.1 ± 0.8%
same,RCP up to 12 h (n = 2),[1]; Reaction solution,99.7 ± 0.1%
same,stability,[1]; up to 12 hours,over 95%
same,log D (pH 7.4),[2],−2.95±0.08
same,"Biodistribution, Adrenal",LNCaP xenografted mice; 1 hour post-injection,17.3±3.26 % IA/g
same,"Biodistribution, Blood",LNCaP xenografted mice; 1 hour post-injection,0.28 ± 0.06 % IA/g
same,"Biodistribution, Bone",LNCaP xenografted mice; 1 hour post-injection,2.73 ± 0.91 % IA/g
same,"Biodistribution, Heart",LNCaP xenografted mice; 1 hour post-injection,0.45 ± 0.15 % IA/g
same,"Biodistribution, Intestine",LNCaP xenografted mice; 1 hour post-injection,2.11 ± 0.78 % IA/g
same,"Biodistribution, Kidneys",LNCaP xenografted mice; 1 hour post-injection,118±13 % IA/g
same,"Biodistribution, LNCaP-tumor",LNCaP xenografted mice; 1 hour post-injection,14.0±5.0 % IA/g
same,"Biodistribution, Liver",LNCaP xenografted mice; 1 hour post-injection,1.02 ± 0.28 % IA/g
same,"Biodistribution, Lung",LNCaP xenografted mice; 1 hour post-injection,1.69 ± 0.45 % IA/g
same,"Biodistribution, Muscle",LNCaP xenografted mice; 1 hour post-injection,1.12 ± 0.32 % IA/g
same,"Biodistribution, Pancreas",LNCaP xenografted mice; 1 hour post-injection,0.97 ± 0.36 % IA/g
same,"Biodistribution, Salivary glands",LNCaP xenografted mice; 1 hour post-injection,2.01±0.33 % IA/g
same,"Biodistribution, Spleen",LNCaP xenografted mice; 1 hour post-injection,6.04±1.87 % IA/g
same,"Biodistribution, Stomach",LNCaP xenografted mice; 1 hour post-injection,1.13 ± 0.20 % IA/g
same,Tumor/Blood uptake ratio,LNCaP xenografted mice; 1 hour post-injection,50
same,Tumor/Kidney uptake ratio,LNCaP xenografted mice; 1 hour post-injection,0.12
same,Tumor/Liver uptake ratio,LNCaP xenografted mice; 1 hour post-injection,14
same,Tumor/Muscles uptake ratio,LNCaP xenografted mice; 1 hour post-injection,13
same,Tumor/Salivary gland uptake ratio,LNCaP xenografted mice; 1 hour post-injection,7
same,"Biodistribution, Adrenal",LNCaP xenografted mice; 4 hours post-injection,8.32±2.87 % IA/g
same,"Biodistribution, Blood",LNCaP xenografted mice; 4 hours post-injection,0.10±0.03 % IA/g
same,"Biodistribution, Bone",LNCaP xenografted mice; 4 hours post-injection,1.34 ± 0.48 % IA/g
same,"Biodistribution, Heart",LNCaP xenografted mice; 4 hours post-injection,0.22 ± 0.05 % IA/g
same,"Biodistribution, Intestine",LNCaP xenografted mice; 4 hours post-injection,1.06 ± 0.50 % IA/g
same,"Biodistribution, Kidneys",LNCaP xenografted mice; 4 hours post-injection,91±10 % IA/g
same,"Biodistribution, LNCaP-tumor",LNCaP xenografted mice; 4 hours post-injection,10.7±3.3 % IA/g
same,"Biodistribution, Liver",LNCaP xenografted mice; 4 hours post-injection,0.72 ± 0.11 % IA/g
same,"Biodistribution, Lung",LNCaP xenografted mice; 4 hours post-injection,0.74 ± 0.19 % IA/g
same,"Biodistribution, Muscle",LNCaP xenografted mice; 4 hours post-injection,0.50 ± 0.22 % IA/g
same,"Biodistribution, Pancreas",LNCaP xenografted mice; 4 hours post-injection,0.45 ± 0.09 % IA/g
same,"Biodistribution, Salivary glands",LNCaP xenografted mice; 4 hours post-injection,0.52±0.06 % IA/g
same,"Biodistribution, Spleen",LNCaP xenografted mice; 4 hours post-injection,1.28 ± 0.39 % IA/g
same,"Biodistribution, Stomach",LNCaP xenografted mice; 4 hours post-injection,0.66 ± 0.15 % IA/g
same,Tumor/Blood uptake ratio,LNCaP xenografted mice; 4 hours post-injection,107
same,Tumor/Kidney uptake ratio,LNCaP xenografted mice; 4 hours post-injection,0.12
same,Tumor/Liver uptake ratio,LNCaP xenografted mice; 4 hours post-injection,15
same,Tumor/Muscles uptake ratio,LNCaP xenografted mice; 4 hours post-injection,21
same,Tumor/Salivary gland uptake ratio,LNCaP xenografted mice; 4 hours post-injection,21
same,"Biodistribution with 2-PMPA blocking, Adrenal",PSMA-expressing tissues; 1 hour post-injection,0.96±0.87 % IA/g
same,"Biodistribution with 2-PMPA blocking, Blood",PSMA-expressing tissues; 1 hour post-injection,0.44 ± 0.50 % IA/g
same,"Biodistribution with 2-PMPA blocking, Bone",PSMA-expressing tissues; 1 hour post-injection,0.39 ± 0.24 % IA/g
same,"Biodistribution with 2-PMPA blocking, Heart",PSMA-expressing tissues; 1 hour post-injection,0.34 ± 0.27 % IA/g
same,"Biodistribution with 2-PMPA blocking, Intestine",PSMA-expressing tissues; 1 hour post-injection,0.87 ± 0.50 % IA/g
same,"Biodistribution with 2-PMPA blocking, Kidneys",PSMA-expressing tissues; 1 hour post-injection,4.59±0.50 % IA/g
same,"Biodistribution with 2-PMPA blocking, LNCaP-tumor",PSMA-expressing tissues; 1 hour post-injection,0.68±0.54 % IA/g
same,"Biodistribution with 2-PMPA blocking, Liver",PSMA-expressing tissues; 1 hour post-injection,1.29 ± 0.53 % IA/g
same,"Biodistribution with 2-PMPA blocking, Lung",PSMA-expressing tissues; 1 hour post-injection,0.67 ± 0.40 % IA/g
same,"Biodistribution with 2-PMPA blocking, Muscle",PSMA-expressing tissues; 1 hour post-injection,0.32 ± 0.36 % IA/g
same,"Biodistribution with 2-PMPA blocking, Pancreas",PSMA-expressing tissues; 1 hour post-injection,0.29 ± 0.19 % IA/g
same,"Biodistribution with 2-PMPA blocking, Salivary glands",PSMA-expressing tissues; 1 hour post-injection,0.51 ± 0.30 % IA/g
same,"Biodistribution with 2-PMPA blocking, Spleen",PSMA-expressing tissues; 1 hour post-injection,0.33±0.16 % IA/g
same,"Biodistribution with 2-PMPA blocking, Stomach",PSMA-expressing tissues; 1 hour post-injection,0.62 ± 0.28 % IA/g
same,in vivo stability (transchelation),PSMA-expressing tissues; LNCaP xenograft mice,"stable in vivo, with limited transchelation phenomena"
